According to patent US10730884B2, “Substituted indole compound derivatives as dengue viral replication inhibitors” (Janssen Pharmaceuticals, Inc., priority 2016, dated 2020):
Read-outs that look alike come from different tables or passages of the source.

Experiments:
DENV-2 16681 strain = test: DENV-2 antiviral assay (eGFP-labeled virus, Vero cells); assay type: cell-based, Dengue virus; conditions: for EC50: DENV-2 16681 eGFP, Vero cells, MOI 0.5, 3 days; for SI: SI=CC50/EC50, DENV-2 antiviral assay
Description: The antiviral activity of all the compounds of the invention was tested against the DENV-2 16681 strain which was labeled with enhanced green fluorescent protein (eGPF). The culture medium consists of minimal essential medium supplemented with 2% of heat-inactivated fetal calf serum, 0.04% gentamycin (50 mg/mL) and 2 mM of L-glutamine. Vero cells, obtained from ECACC, were suspended in culture medium and 25 μL was added to 384-well plates (2500 cells/well), which already contain the antiviral compounds. Typically, these plates contain a 5-fold serial dilution of 9 dilution steps of the test compound at 200 times the final concentration in 100% DMSO (200 nL). […] Finally, each plate contains wells which are assigned as virus controls (containing cells and virus in the absence of compound), cell controls (containing cells in the absence of virus and compound) and medium controls (containing medium in the absence of cells, virus and compounds). To the wells assigned as medium control, 25 μL of culture medium was added instead of Vero cells. Once the cells were added to the plates, the plates were incubated for 30 minutes at room temperature to allow the cells to distribute evenly within the wells. Next, the plates were incubated in a fully humidified incubator (37° C., 5% CO2) until the next day. Then, DENV-2 strain 16681, labeled with eGFP, was added at a multiplicity of infection (MOI) of 0.5. Therefore, 15 μL of virus suspension was added to all the wells containing test compound and to the wells assigned as virus control. In parallel, 15 μL of culture medium was added to the medium and cell controls. Next, the plates were incubated for 3 days in a fully humidified incubator (37° C., 5% CO2). At the day of the read out, the eGFP fluorescence was measured using an automated fluorescence microscope at 488 nm (blue laser). Using an in-house LIMS system, inhibition dose response curves for each compound were calculated and the half maximal effective concentration (EC50) was determined. Therefore, the percent inhibition (I) for every test concentration is calculated using the following formula: I=100*([…])/(SVC−SCC); ST, SCC and SVC are the amount of eGFP signal in the test compound, cell control and virus control wells, respectively. The EC50 represents the concentration of a compound at which the virus replication is inhibited with 50%, as measured by a 50% reduction of the eGFP fluorescent intensity compared to the virus control. The EC50 is calculated using linear interpolation (Table 1).

in vitro = conditions: African green monkey
DENV-1 strain TC974#666 = test: Tetravalent RT-qPCR assay, serotype 1; assay type: cell-based, Dengue virus; conditions: for EC50: RT-qPCR serotype 1 TC974#666, Protocol A, Vero cells, day 3, read-out: EC50; for SI: RT-qPCR serotype 1 TC974#666
Description: (§1) The antiviral activity of the compounds of the invention was tested against DENV-1 strain TC974#666 (NCPV), DENV-2 strain 16681, DENV-3 strain H87 (NCPV) and DENV-4 strain H241 (NCPV) in a RT-qPCR assay. Therefore, Vero cells were infected with either DENV-1, or -2, or -3, or -4 in the presence or absence of test compounds. At day 3 post-infection, the cells were lysed and cell lysates were used to prepare cDNA of both a viral target (the 3′UTR of DENV; Table 2) and a cellular reference gene (β-actin, Table 2). Subsequently, a duplex real time PCR was performed on a Lightcycler480 instrument. The generated Cp value is inversely proportional to the amount of RNA expression of these targets. Inhibition of DENV replication by a test compound result in a shift of Cp's for the 3′UTR gene. On the other hand, if a test compound is toxic to the cells, a similar effect on β-actin expression will be observed. The comparative ΔΔCp method is used to calculate EC50, which is based on the relative gene expression of the target gene (3′UTR) normalized with the cellular housekeeping gene (β-actin). In addition, CC50 values are determined based on the Cp values acquired for the housekeeping gene β-actin.
(§2) The culture medium consisted of minimal essential medium supplemented with 2% of heat-inactivated fetal calf serum, 0.04% gentamycin (50 mg/mL) and 2 mM of L-glutamine. Vero cells, obtained from ECACC, were suspended in culture medium and 75 μL/well was added in 96-well plates (10000 cells/well), which already contain the antiviral compounds. […] In addition, each plate contains wells which are assigned as virus controls (containing cells and virus in the absence of compound) and cell controls (containing cells in the absence of virus and compound). Once the cells were added in the plates, the plates were incubated in a fully humidified incubator (37° C., 5% CO2) until the next day. Dengue viruses serotype-1, 2, 3 and 4 were diluted in order to obtain a Cp of ˜22-24 in the assay. Therefore, 25 μL of virus suspension was added to all the wells containing test compound and to the wells assigned as virus control. In parallel, 25 μL of culture medium was added to the cell controls. Next, the plates were incubated for 3 days in a fully humidified incubator (37° C., 5% CO2). After 3 days, the supernatant was removed from the wells and the cells were washed twice with ice-cold PBS (˜100 μL). The cell pellets within the 96-well plates were stored at −80° C. for at least 1 day. Next, RNA was extracted using the Cells-to-CT™ lysis kit, according to the manufacturer's guideline (Life Technologies). The cell lysates can be stored at −80° C. or immediately used in the reverse transcription step.
(§3) In preparation of the reverse transcription step, mix A (table 3A) was prepared and 7.57 μL/well was dispensed in a 96-well plate. After addition of 5 μL of the cell lysates, a five minute denaturation step at 75° C. was performed (table 3B). Afterwards, 7.43 μL of mix B was added (table 3C) and the reverse transcription step was initiated (table 3D) to generate cDNA.
(§4) Finally, a RT-qPCR mix was prepared, mix C (table 4A), and 22.02 μL/well was dispensed in 96-well LightCycler qPCR plates to which 3 μL of cDNA was added and the qPCR was performed according to the conditions in table 4B on a LightCycler 480.
(§5) Using the LightCycler software and an in-house LIMS system, dose response curves for each compound were calculated and the half maximal effective concentration (EC50) and the half maximal cytotoxic concentration (CC50) were determined (Tables 5-8).

DENV-3 strain H87 = test: Tetravalent RT-qPCR assay, serotype 3; assay type: cell-based, Dengue virus; conditions: for EC50: RT-qPCR serotype 3 H87, Protocol A, Vero cells, day 3, read-out: EC50; for SI: RT-qPCR serotype 3 H87
Description: as §1, §2, §3, §4, §5

DENV-4 strain H241 = test: Tetravalent RT-qPCR assay, serotype 4; assay type: cell-based, Dengue virus; conditions: for EC50: RT-qPCR serotype 4 H241, Protocol A, Vero cells, day 3; for SI: RT-qPCR serotype 4 H241
Description: as §1, §2, §3, §4, §5

DENV-2 strain 16681 = test: Tetravalent RT-qPCR assay, serotype 2; assay type: cell-based, Dengue virus; conditions: for EC50: RT-qPCR serotype 2 16681, Protocol A, Vero cells, day 3; for SI: RT-qPCR serotype 2 16681
Description: as §1, §2, §3, §4, §5

Vero cells = conditions: African green monkey
[1] = Dengue virus, DENV2, Vero, 72 h
[2] = Dengue virus, DENV1, Vero, 72 h
[3] = Dengue virus, DENV3, Vero, 72 h
[4] = Dengue virus, DENV4, Vero, 72 h

SMILES	SI (DENV-2 16681 strain)	CC50 (in vitro)	EC50 (DENV-1 strain TC974#666; [2])	EC50 (DENV-3 strain H87; [3])	EC50 (DENV-4 strain H241; [4])	EC50 (DENV-2 16681 strain)	other results
COc1cc(NC(C(=O)c2c[nH]c3cc(OC(F)(F)F)c(C)cc23)c2ccc(F)cc2OC)cc(OCCO)c1 (racemic) [Compound 4, 2-(4-fluoro-2-methoxyphenyl)-2-((3-(2-hydroxyethoxy)-5-methoxyphenyl)amino)-1-(5-methyl-6-(trifluoromethoxy)-1H-indol-3-yl)ethanone]	359	3.9 µM					EC50 (DENV-2 16681 strain; [1]): 11 nM
CCOc1cc2[nH]cc(C(=O)C(Nc3cc(OC)cc(OCCO)c3)c3ccc(F)cc3OC)c2cc1C (racemic) [Compound 6, 1-(6-ethoxy-5-methyl-1H-indol-3-yl)-2-(4-fluoro-2-methoxyphenyl)-2-((3-(2-hydroxyethoxy)-5-methoxyphenyl)amino)ethanone]	3160	5.7 µM					EC50 (DENV-2 16681 strain; [1]): 1.8 nM
COc1cc(NC(C(=O)c2c[nH]c3cc(F)ccc23)c2ccc(Cl)cc2OC)cc(OCCOP(=O)(O)O)c1 (racemic) [Compound 13-P, 2-(3-((1-(4-chloro-2-methoxyphenyl)-2-(6-fluoro-1H-indol-3-yl)-2-oxoethyl)amino)-5-methoxyphenoxy)ethyl dihydrogen phosphate]	5210	11 µM					EC50 (DENV-2 16681 strain; [1]): 2.1 nM
COc1cc(NC(C(=O)c2c[nH]c3cc(F)ccc23)c2ccc(Cl)cc2OC)cc(OCCOP(=O)(O)O)c1 (single isomer, unassigned) [13A-P^b]		11 µM	4.2 nM	42 nM	250 nM	0.48 nM	EC50 (DENV-1 strain TC974#666; listed as 13A-P^c): 4.4 nM; EC50 (DENV-3 strain H87; listed as 13A-P^c): 28 nM; EC50 (DENV-4 strain H241; listed as 13A-P^c): 230 nM; EC50 (DENV-2 16681 strain; listed as 13A-P^c): 0.94 nM; EC50 (DENV-2 strain 16681): 0.97 nM; EC50 (DENV-2 strain 16681; listed as 13A-P^c): 0.44 nM
COc1cc(NC(C(=O)c2c[nH]c3c(C)cc(Cl)cc23)c2ccc(F)cc2OC)cc(OCCO)c1 (single isomer, unassigned) [Compound 1B]	148					72 nM	CC50 (Vero cells): 11 µM
COc1cc(NC(C(=O)c2c[nH]c3cc(OC)c(Cl)cc23)c2ccc(F)cc2OC)cc(OCCO)c1 (single isomer, unassigned) [Compound 2B]	85					130 nM	CC50 (Vero cells): 11 µM
COc1cc(NC(C(=O)c2c[nH]c3cc(OC(F)(F)F)c(C)cc23)c2ccc(F)cc2OC)cc(OCCO)c1 (single isomer, unassigned) [Compound 4A]	5.4	3.4 µM				630 nM	
COc1cc(NC(C(=O)c2c[nH]c3cc4c(cc23)CCO4)c2ccc(F)cc2OC)cc(OCCO)c1 (single isomer, unassigned) [Compound 7A]	13700	10 µM	7.8 nM	63 nM	380 nM	1 nM	SI (DENV-1 strain TC974#666): 713; SI (DENV-3 strain H87): 76; SI (DENV-4 strain H241): 12; EC50 (DENV-2 strain 16681; [1]): 1.6 nM; SI (DENV-2 strain 16681): 5930
COc1cc(NC(C(=O)c2c[nH]c3c4c(ccc23)OCC4)c2ccc(F)cc2OC)cc(OCCO)c1 (single isomer, unassigned) [Compound 8A]	4240	12 µM	20 nM	150 nM	710 nM	4.3 nM	SI (DENV-1 strain TC974#666): 560; SI (DENV-3 strain H87): 64; SI (DENV-4 strain H241): 20; EC50 (DENV-2 strain 16681; [1]): 8.1 nM; SI (DENV-2 strain 16681): 1530
COc1cc(NC(C(=O)c2c[nH]c3cc(F)c(C)cc23)c2ccc(Cl)cc2OC)cc(OCCO)c1 (single isomer, unassigned) [Compound 9A]	70	3.7 µM				52 nM	
COc1cc(NC(C(=O)c2c[nH]c3cc4c(cc23)CCO4)c2ccc(Cl)cc2OC)cc(OCCO)c1 (single isomer, unassigned) [Compound 10A]	44	4.9 µM				110 nM	
COc1cc(NC(C(=O)c2c[nH]c3c4c(ccc23)OCC4)c2ccc(Cl)cc2OC)cc(OCCO)c1 (single isomer, unassigned) [Compound 11A]	7460	6 µM	8.5 nM	28 nM	270 nM	0.88 nM	SI (DENV-1 strain TC974#666): 1350; SI (DENV-3 strain H87): 359; SI (DENV-4 strain H241): >9.1; EC50 (DENV-2 strain 16681; [1]): 1.9 nM; SI (DENV-2 strain 16681): 2490
COc1cc(NC(C(=O)c2c[nH]c3cc(OC)c(C)c(F)c23)c2ccc(Cl)cc2OC)cc(OCCO)c1 (single isomer, unassigned) [Compound 12A]	1200	5.6 µM				6 nM	
[2H]C(Nc1cc(OC)cc(OCCO)c1)(C(=O)c1c[nH]c2cc(F)ccc12)c1ccc(Cl)cc1OC (single isomer, unassigned) [Compound 13A-D]	24300	11 µM	5.2 nM	36 nM	210 nM	0.46 nM	SI (DENV-1 strain TC974#666): 3070; SI (DENV-3 strain H87): >96; SI (DENV-4 strain H241): 24; EC50 (DENV-2 strain 16681; [1]): 0.61 nM; SI (DENV-2 strain 16681): >8520
